Data on 5 molecules can be found in patent US20090082303A1, “DRUG FOR PREVENTING AND TREATING ATHEROSCLEROSIS” (Takeda Pharmaceutical Company Limited, priority 2004, published 2009).

Series [1] deals with human GM3 synthase. Kind of series: GM3 synthase inhibitor screening (1): BODIPY-lactosylceramide, HPTLC fluorescence. Conditions: 73 without CMP. It counts as biochemical. The procedure: (§1) The cell line stably expressing human GM3 synthase, which was established by transducing human GM3 synthase gene into RAW264.7 strain purchased from ATCC (Raschke W C, et al., Cell, Vol. 15, pp. 261-267, 1978) with retrovirus vector, was cultured in 10% FBS-DMEM culture medium. After culturing to confluent state, the cells were washed once with PBS and harvested. After weighing wet cells, the cells were suspended in 3 (three) volumes of buffer solution (15 mM sodium cacodilate (pH6.5), 5% glycerol). By ultrasonication, the cells were disrupted, and the supernatant, of which cell debris was excluded by centrifugation, was used as a crude enzyme solution. Protein concentration of the crude enzyme solution was determined using BCA protein assay kit(BIO RAD, Inc.).
BODIPY-lactosylceramide (Molecular Probes, Inc.) in chloroform solution was dried in Eppendorf tube under nitrogen flow. 4× reaction buffer solution consisting of 400 mM sodium cacodylate (pH6.5), 1.6% Triton X-100, 40 mM MgCl2 and 8 mM 2,3 dehydro-2-deoxy-N-acetylneuraminic acid was added to the tube. After vortexing, it was sufficiently dissolved by ultrasonication for 20 seconds in sonicator bath and was used as a substrate solution.
Ten μl of substrate solution, 10 μl of 800 μM CMP-sialic acid, 10 μl of crude enzyme solution and 10 μl of sample were admixed and followed by incubating at 37° C. for one hour. As a sample, cytidine mono phosphate (CMP), wherein the inhibitory effect to GM3 synthase activity is reported, was used (Biochem. Biophys. Res. Commun., Vol. 193, pp. 585-590, 1993). One milliliter of chloroform/methanol mixture (2:1) was added to the reaction mixture to terminate the reaction. After mixing, ultrasonication was done for 30 minutes in sonicator bath. Supernatant was recovered by centrifugation at 15,000 rpm for 5 minutes. Pellet was further washed with 200 μl of chloroform/methanol mixture (2:1) and recovered its supernatant by centrifugation at 15,000 rpm for 5 minutes. Collected supernatant was dried under nitrogen flow, and residue was re-suspended in 50 μl of chloroform/methanol mixture (2:1). Twenty μl of the supernatant isolated by centrifugation was spotted on HPTLC (Merck, Inc.) and was developed with solvent system consisting of chloroform/methanol/0.2% CaCl2 aqueous solution (50:45:10). After development, fluorescent intensity was measured with LAS-1000 (Fuji Film, Inc.). Fluorescent intensity of both the substrate, BODIPY-lactosylceramide and the product, BODIPY-GM3 was measured, respectively to calculate a ratio of GM3 produced to lactosylceramide added. The activity was calculated as an amount of GM3 (nmol) produced/hour/mg of protein in the crude enzyme solution.
GM3 synthase activity(nmol/mg/hr)=BODIPY-GM3(AU)/(BODIPY-lactosylceramide(AU)+BODIPY-GM3(AU))×10 nmol×1/(protein weight (mg)×reaction time(hr))
AU means a numerical value determined with LAS-1000.

Series [2] relates to human GM3 synthase. Kind of series: GM3 synthase inhibitor screening (2): Phospholipid FlashPlate, CMP-[14C] sialic acid. It counts as biochemical. As to conditions: without CMP = 1. As to the method:
as §1
Coating of lactosylceramide, the substrate for GM3 synthase to Phospholipid FlashPlate (PerkinElmer, Inc.) was carried out by the method as described below. 200 μM lactosylceramide-reaction buffer solution consisting of 100 mM sodium cacodylate (pH6.5) and 10 mM MgCl2 was dispensed on the plate at 200 μl/well and followed by standing at room temperature for overnight. After washing the plate once with PBS, 30 μM lactosylceramide-reaction buffer solution was dispensed at 70 μl/well.
Ten microliter of the crude enzyme solution prepared by the procedure in EXAMPLE 4, 10 μl of CMP solution and 10 μl of 500 μM CMP-[^14C] sialic acid (Amersham; 5×10^4 cpm/well) were admixed and incubated at 37° C. for 3 (three) hours. Radioactivity was measured by Topcount (PerkinElmer, Inc.).
A well, in which buffer solution for cell suspension was added instead of the crude enzyme was used as a blank. A value obtained by subtract the cpm value of blank well from the cpm value of sample well was used as a value for enzyme activity.
Relative value was calculated based on the conditions without treatment of CMP as 1 (one).

The subject of the next series is GM3 synthase. Briefly: Effect of shRNA expressing retrovirus on GM3 synthase activity in RAW264.7 strain. The format is cell-based. As to conditions: crude enzyme from retrovirus-infected RAW264.7; uninfected RAW264.7 = 1. As to the method: RAW264.7 strain purchased from ATCC (Raschke W C, et al., Cell, Vol. 15, pp. 261-267, 1978) was suspended in 10% FBS-DMEM culture medium to be 1×10^5 cells/ml, and was seeded on 12-well plate at 1 ml/well. After overnight incubation at 37° C. in the presence of 5% CO2, retrovirus, which expressed sequences for shRNA (short hairpin RNA), SHI (SEQ ID NO: 5) or SH3 (SEQ ID NO: 6), was infected to RAW264.7 strain. After overnight culture, the medium was replaced with 10% FBS-DMEM culture medium and the cells were cultured to confluent state. Using these cells, in accordance with the method in EXAMPLE 4, crude enzyme was prepared to assay GM3 synthase activity. Based on the value of the enzyme activity from RAW264.7 strain as 1 (one), the value from the virus-infected cells was calculated as relative value.

The next series has as its system RAW264.7 strain. Briefly: Effect of GM3 synthase knock-down on cholesterol efflux from RAW264.7 strain. It counts as cell-based. As to conditions: [3H] cholesterol efflux to Apolipoprotein A1 20 μg/ml, 6 hours; uninfected RAW264.7 = 1. The procedure: RAW264.7 strain infected with the retrovirus that expresses shRNA targeting GM3 synthase was suspended in 10% FBS-DMEM culture medium to be 1.5-2×10^6 cells/ml and was seeded on 12-well plate at 1 mL/well. After overnight culture at 37° C. in the presence of 5% CO2, the cells were washed with PBS. Then, after adding 1% FBS-DMEM culture medium, which contained [^3H] cholesterol-labeled βVLDL (final concentration: 150 μg of total cholesterol/ml), the cells were cultured for overnight. The cells were washed twice with 0.2% BSA-PBS and further washed with PBS. After replacing the medium with 0.1% BSA-DMEM culture medium, the cells were cultivated for one day. After replacing 20 μg/ml of Apolipoprotein A1 containing 0.1% BSA-DMEM culture medium, the cells were cultured for 6 hours. Cultured supernatant was collected, and radioactivity of the supernatant, from which cell debris was removed by centrifugation, was measured with the liquid scintillation counter. […] After incubation at 37° C. for overnight, radioactivity of the cell lysate was measured with the liquid scintillation counter. A ratio of the radioactivity of the culture supernatant to the summation of the radioactivity of the culture supernatant and the cell lysate was calculated. […] Based on the value from RAW264.7 strain as 1 (one), the value from the virus-infected cells was calculated as relative value.

A further series concerns mouse GM3 synthase. Briefly: Effect of IFN-γ on expression of mouse GM3 synthase in mouse peritoneal macrophage cells (TaqMan PCR). The format is cell-based. As to conditions: 24 hours, GAPDH internal standard, ΔΔCt, without IFN-γ = 1. As to the method: In accordance with the method by Hakamada et al. [Jikken-igaku (Experimental Medicine), Supplementary Volume, Vol. 14, No. 12, “Junnkan Kenkyu Protocol (Protocol for study on circulation)”, pp. 49-52, 1996], from C57BL/6j mouse after the intraperitoneal injection of thioglycolate, peritoneal macrophage was prepared. The cells were suspended in 10% FBS-DMEM culture medium to be 1.5-2×10^6 cells/mL, and were seeded on 12-well plate at 1 mL/well. After overnight culture at 37° C. in the presence of 5% CO2, the cells were washed with PBS. The 1% FBS-DMEM culture medium containing mouse recombinant IFN-γ at prescribed concentration was added to the cells, and cultivation was performed for 24 hours.
After washing the cells once with PBS, using RNeasy Mini Kit (QIAGEN) total RNA was prepared. Subsequently, using TaqMan Reverse Transcription Reagents (Applied Biosystems) cDNA was prepared. By TaqMan PCR method Using TaqMan Universal PCR Master Mix (Applied Biosystems), the expression level of GM3 synthase was quantified. As TaqMan probe and primers for mouse GM3 synthase, Assays-on-Demand (Mm00488232_ml) supplied from Applied Biosystems was used.
(§2) In quantification, an expression level of GAPDH was used as internal standard. By ΔΔCt method, relative value was calculated based on the conditions without treatment of IFN-γ as 1 (one).
For orientation: Real-time PCR tracks product formation cycle by cycle.

Series [3] relates to human GM3 synthase. Kind of series: Effect of IFN-γ on expression of human GM3 synthase in THP-1 cells (TaqMan PCR). As to conditions: 24 hours, THP-1 macrophage-like cells, without IFN-γ = 1. It counts as cell-based. As to the method: THP-1 cells suspended in RPMI-1640 culture medium containing phorbol 12-myristeate 13-acetate (final concentration: […]), in which 10% FBS, 25 mM HEPES and Penicillin/Streptomycin were comprised, were seeded on 24-well plate at 1.0×10^6 cells/well and treated, for 3 (three) days to differentiate into macrophage-like cells. After washing the cells with PBS, RPMI-1640 culture medium containing human recombinant IFN-γ at a prescribed concentration was added to the cells. Subsequently, the cells were cultured for 24 hours.
As TaqMan probe and primers for human GM3 synthase, Assays-on-Demand (Hs00187405 ml) supplied from Applied Biosystems was used.
as §2

As for `Nc1ccn([C@@H]2O[C@H](COP(=O)(O)O)[C@@H](O)[C@H]2O)c(=O)n1` [CMP, cytidine mono phosphate], the GM3 synthase activity amounted to 46 nmol/mg/h in the series on human GM3 synthase [1] (CMP 0.1 mM); 27 nmol/mg/h with human GM3 synthase [1] (CMP 0.3 mM); 12 nmol/mg/h in the series on human GM3 synthase [1] (CMP 1 mM); 5 nmol/mg/h in the series on human GM3 synthase [1] (CMP 3 mM); 7 nmol/mg/h in the series with human GM3 synthase [1] (CMP 10 mM). Besides, the “GM3 synthase activity (relative value)” value came out at 1.01 in the series with human GM3 synthase [2] (CMP 0.04 mM); 0.73 in the series on human GM3 synthase [2] (CMP 0.12 mM); 0.58 in the series on human GM3 synthase [2] (CMP 0.4 mM); 0.32 in the series on human GM3 synthase [2] (CMP 1.2 mM); 0.28 in the series with human GM3 synthase [2] (CMP 4 mM).
As for “SH1: retrovirus expressing shRNA (short hairpin RNA) sequence SEQ ID NO: 5 targeting GM3 synthase (GAAGACCCAGCTTGTTAATGTGTGCTGTCCATTAACAAGCTGGGTCTTCTTTTT)”, the “GM3 synthase activity (relative value)” value in the series with GM3 synthase worked out at 0.3. Moreover, the “cholesterol transporting activity (relative value)” value in the series with RAW264.7 strain is given as 1.3.
In the same order, the values of “SH3: retrovirus expressing shRNA (short hairpin RNA) sequence SEQ ID NO: 6 targeting GM3 synthase (GCCAATGATTTGTTCGTTAGTGTGCTGTCCTAACGAACAAATCATTGGCTTTTT)” are 0.5 and 1.1.
Take “mIFN-γ: mouse recombinant IFN-γ, known as the atherogenic cytokine”: the “Expression (mouse GM3 synthase mRNA, relative value)” value came to 4 in the series with mouse GM3 synthase (mIFN-γ 1 U/mL) and 25 in the series with mouse GM3 synthase (mIFN-γ 10 U/mL).

B1: hIFN-γ: human recombinant IFN-γ (protein, UniProt P01579 24-161, looked up)
Interferon gamma: QDPYVKEAENLKKYFNAGHSDVADNGTLFLGILKNWKEESDRKIMQSQIVSFYFKLFKNFKDDQSIQKSVETIKEDMNVKFFNSNKKKRDDFEKLTNYSVTDLNVQRKAIHELIQVMAELSPAAKTGKRKRSQMLFRG
Turning to B1, the “Expression level (human GM3 synthase mRNA, relative value)” value in the series on human GM3 synthase [3] (hIFN-γ 10 ng/mL) is 2.6; in the series on human GM3 synthase [3] (hIFN-γ 30 ng/mL) it was 2.4.
